Test results from ChEMBL document CHEMBL1275605, “Rapid assessment of antibacterial activity against Mycobacterium ulcerans by using recombinant luminescent strains” (2010).
≈ marks a conversion by molar mass, not a printed value. Calls of active or inactive are those of the source. No cut-off for these calls is given here.

Legend:
Mycobacterium ulcerans [1] = experiment: Antimicrobial activity against Mycobacterium ulcerans ATCC 19423 agar dilution method; assay type: functional
Mycobacterium ulcerans [2] = experiment: Antimicrobial activity against Mycobacterium ulcerans Cu001 agar dilution method; assay type: functional
Mycobacterium ulcerans [3] = experiment: Antimicrobial activity against Mycobacterium ulcerans ATCC 19423 harboring pTY60H assessed as 4-fold increase in reserpine-mediated inhibition of bacterial growth after 14 days; assay type: functional, organism-based
Mycobacterium ulcerans [4] = experiment: Antimicrobial activity against Mycobacterium ulcerans ATCC 19423 harboring pTY60H containing pCK0601 carrying the luxAB gene under the hsp60 promoter after 14 days determined according to RLU count by real-time luminescence method; assay type: functional; conditions: ATCC 19423, 336 h
Mycobacterium ulcerans [5] = experiment: Antimicrobial activity against Mycobacterium ulcerans ATCC 19423 harboring pTY60H carrying the luxAB gene under the hsp60 promoter determined after 14 days in presence of 2.5 ug/ml ATP-cassette transporter inhibitor reserpine; assay type: functional, organism-based
Mycobacterium ulcerans [6] = experiment: Antimicrobial activity against Mycobacterium ulcerans ATCC 19423 harboring pTY60H containing pCK0601 carrying the luxAB gene under the hsp60 promoter after 14 days determined according to CFU counts by bioluminescence method; assay type: functional; conditions: ATCC 19423, 336 h
Mycobacterium ulcerans [7] = experiment: Antimicrobial activity against Mycobacterium ulcerans 1059 harboring pTY60K carrying the luxAB gene under the hsp60 promoter agar dilution method; assay type: functional
Mycobacterium ulcerans [8] = experiment: Antimicrobial activity against Mycobacterium ulcerans 1059 harboring pTY60K containing pMH94 carrying the luxAB gene under the hsp60 promoter after 14 days determined according to CFU count by bioluminescence method; assay type: functional; conditions: Mycobacterium ulcerans, 1059, 336 h
Mycobacterium ulcerans [9] = experiment: Antimicrobial activity against Mycobacterium ulcerans ATCC 19423 harboring pTY60K containing pMH94 carrying the luxAB gene under the hsp60 promoter after 7 days determined according to RLU count by real-time luminescence method; assay type: functional; conditions: ATCC 19423, 168 h
Mycobacterium ulcerans [10] = experiment: Antimicrobial activity against Mycobacterium ulcerans 1059 harboring pTY60K containing pMH94 carrying the luxAB gene under the hsp60 promoter after 14 days determined according to RLU count by real-time luminescence method; assay type: functional; conditions: Mycobacterium ulcerans, 1059, 336 h
Mycobacterium ulcerans [11] = experiment: Antimicrobial activity against Mycobacterium ulcerans ATCC 19423 harboring pTY60K containing pMH94 carrying the luxAB gene under the hsp60 promoter after 7 days determined according to CFU count by bioluminescence method; assay type: functional; conditions: ATCC 19423, 168 h
Mycobacterium ulcerans [12] = experiment: Antimicrobial activity against Mycobacterium ulcerans 1059 agar dilution method; assay type: functional
Mycobacterium ulcerans [13] = experiment: Antimicrobial activity against Mycobacterium ulcerans ATCC 19423 harboring pTY60H carrying the luxAB gene under the hsp60 promoter agar dilution method; assay type: functional
Mycobacterium ulcerans [14] = experiment: Antimicrobial activity against Mycobacterium ulcerans ATCC 19423 harboring pTY60H assessed as 2-fold increase in reserpine-mediated inhibition of bacterial growth after 14 days; assay type: functional, organism-based

| SMILES | MIC (Mycobacterium ulcerans [1]) [mg/L] | MIC (Mycobacterium ulcerans [2]) [mg/L] | Activity (Mycobacterium ulcerans [3]) | MIC (Mycobacterium ulcerans [4]) [mg/L] | Activity (Mycobacterium ulcerans [5]) | MIC (Mycobacterium ulcerans [6]) [mg/L] | MIC (Mycobacterium ulcerans [7]) [mg/L] | MIC (Mycobacterium ulcerans [8]) [mg/L] | MIC (Mycobacterium ulcerans [9]) [mg/L] | MIC (Mycobacterium ulcerans [10]) [mg/L] | MIC (Mycobacterium ulcerans [11]) [mg/L] | MIC (Mycobacterium ulcerans [12]) [mg/L] | MIC (Mycobacterium ulcerans [13]) [mg/L] | Activity (Mycobacterium ulcerans [14]) |
| --- | --- | --- | --- | --- | --- | --- | --- | --- | --- | --- | --- | --- | --- | --- |
| CN[C@@H]1C[C@H](N)[C@@H](O)[C@H](O[C@H]2O[C@H](CO)[C@H](O)[C@@H]3O[C@@]4(O[C@@H]23)O[C@H]([C@H](N)CO)[C@H](O)[C@H](O)[C@H]4O)[C@H]1O [HYGROMYCIN] | ≤ 12.5 | ≤ 12.5 | – | – | – | – | – | – | – | – | – | – | – | – |
| CC[C@H]1OC(=O)[C@H](C)[C@@H](O[C@H]2C[C@@](C)(OC)[C@@H](O)[C@H](C)O2)[C@H](C)[C@@H](O[C@@H]2O[C@H](C)C[C@H](N(C)C)[C@H]2O)[C@](C)(O)C[C@@H](C)C(=O)[C@H](C)[C@@H](O)[C@]1(C)O [ERYTHROMYCIN] | > 16 | – | Active | 0.5 (≈ 0.681 µM) | Active | 1 (≈ 1.36 µM) | – | – | – | – | – | – | – | – |
| CC[C@H]1OC(=O)[C@H](C)[C@@H](O[C@H]2C[C@@](C)(OC)[C@@H](O)[C@H](C)O2)[C@H](C)[C@@H](O[C@@H]2O[C@H](C)C[C@H](N(C)C)[C@H]2O)[C@](C)(OC)C[C@@H](C)C(=O)[C@H](C)[C@@H](O)[C@]1(C)O [CLARITHROMYCIN] | – | – | – | – | – | – | 0.25 (≈ 0.334 µM) | 0.25 (≈ 0.334 µM) | 0.13 (≈ 0.174 µM) | 0.13 (≈ 0.174 µM) | 0.03 (≈ 0.0401 µM) | 0.25 (≈ 0.334 µM) | – | – |
| CC(=O)NC[C@H]1CN(c2ccc(N3CCOCC3)c(F)c2)C(=O)O1 [LINEZOLID] | – | – | – | – | – | – | 1 (≈ 2.96 µM) | 4 (≈ 11.9 µM) | 1 (≈ 2.96 µM) | 2 (≈ 5.93 µM) | 1 (≈ 2.96 µM) | 1 (≈ 2.96 µM) | – | – |
| NNC(=O)c1ccncc1 [ISONIAZID] | – | – | – | – | – | – | – | > 40 | > 40 | > 40 | > 40 | > 40 | – | – |
| CN[C@@H]1[C@H](O[C@H]2[C@H](O[C@H]3[C@H](O)[C@@H](O)[C@H](N=C(N)N)[C@@H](O)[C@@H]3N=C(N)N)O[C@@H](C)[C@]2(O)C=O)O[C@@H](CO)[C@H](O)[C@H]1O [STREPTOMYCIN] | 0.25 (≈ 0.43 µM) | – | – | 1 (≈ 1.72 µM) | – | 1 (≈ 1.72 µM) | 0.25 (≈ 0.43 µM) | 0.13 (≈ 0.224 µM) | 0.5 (≈ 0.86 µM) | 0.13 (≈ 0.224 µM) | 0.25 (≈ 0.43 µM) | 0.25 (≈ 0.43 µM) | 0.25 (≈ 0.43 µM) | – |
| NC[C@H]1O[C@H](O[C@H]2[C@H](O)[C@@H](O[C@H]3O[C@H](CO)[C@@H](O)[C@H](N)[C@H]3O)[C@H](N)C[C@@H]2N)[C@H](O)[C@@H](O)[C@@H]1O [KANAMYCIN] | ≤ 5 | ≤ 5 | – | – | – | – | – | – | – | – | – | – | – | – |
| COc1c(N2C[C@@H]3CCCN[C@@H]3C2)c(F)cc2c(=O)c(C(=O)O)cn(C3CC3)c12 [MOXIFLOXACIN] | ≤ 0.016 | – | – | ≤ 0.03 | – | ≤ 0.03 | – | > 0.25 | 0.03 (≈ 0.0747 µM) | > 0.25 | 0.03 (≈ 0.0747 µM) | > 0.5 | 0.03 (≈ 0.0747 µM) | – |
| CN(C)[C@@H]1C(O)=C(C(N)=O)C(=O)[C@@]2(O)C(O)=C3C(=O)c4c(O)cccc4[C@@](C)(O)[C@H]3C[C@@H]12 [TETRACYCLINE] | 10 (≈ 22.5 µM) | – | – | 2.5 (≈ 5.63 µM) | Active | 2.5 (≈ 5.63 µM) | – | – | – | – | – | – | 5 (≈ 11.3 µM) | Active |
| CO[C@H]1/C=C/O[C@@]2(C)Oc3c(C)c(O)c4c(O)c(c(/C=N/N5CCN(C)CC5)c(O)c4c3C2=O)NC(=O)/C(C)=C\C=C\[C@H](C)[C@H](O)[C@@H](C)[C@@H](O)[C@@H](C)[C@H](OC(C)=O)[C@@H]1C [RIFAMPIN] | 0.5 (≈ 0.608 µM) | – | – | ≤ 0.03 | – | ≤ 0.03 | 0.5 (≈ 0.608 µM) | 0.03 (≈ 0.0365 µM) | 0.03 (≈ 0.0365 µM) | 0.06 (≈ 0.0729 µM) | ≤ 0.016 | 0.13 (≈ 0.158 µM) | 0.5 (≈ 0.608 µM) | – |
